Experimental findings from the supplement of paper PMC10307832 are described below.

What all share (assay): relative viability (nuclei count vs DMSO), 5 days (fraction); higher = more cells survive
Compound in the assay “Erlotinib + Trametinib”: C#Cc1cccc(Nc2ncnc3cc(OCCOC)c(OCCOC)cc23)c1 [Erlotinib] + CC(=O)Nc1cccc(-n2c(=O)n(C3CC3)c(=O)c3c(Nc4ccc(I)cc4F)n(C)c(=O)c(C)c32)c1 [Trametinib] (partner 0.02 µM)
Summed up: (§1)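 Medians of duplicate plates are given as relative viability. That measure is the nuclei count in treated wells divided by the count in vehicle wells. Counts were taken on 4× images of lung cancer cell lines in 1536-well plates, 5 days after pin-tool dosing the day after seeding with one drug alone or a fixed anchor-drug dose plus five library-drug doses (not always all listed) in √10 steps.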

Compound in the assay “Erlotinib + Phenformin”: C#Cc1cccc(Nc2ncnc3cc(OCCOC)c(OCCOC)cc23)c1 [Erlotinib] + N=C(N)NC(=N)NCCc1ccccc1 [Phenformin] (partner 250 µM)
The gist of the method:
as §1

Compound in the assay “AT9283 + Alpelisib”: O=C(Nc1c[nH]nc1-c1nc2ccc(CN3CCOCC3)cc2[nH]1)NC1CC1 [AT9283] + Cc1nc(NC(=O)N2CCC[C@H]2C(N)=O)sc1-c1ccnc(C(C)(C)C(F)(F)F)c1 [Alpelisib] (partner 2 µM)
The gist of the method: as §1

SW 1573: the relative viability in the assay with Erlotinib + Trametinib (first compound 0.02 µM) was 0.568; with Erlotinib + Trametinib (first compound 0.2 µM), 0.557; with Erlotinib + Trametinib (first compound 0.6325 µM), 0.526; with Erlotinib + Trametinib (first compound 2 µM), 0.474; with Erlotinib + Phenformin (first compound 0.02 µM), 0.377; with Erlotinib + Phenformin (first compound 0.2 µM), 0.412. Further, the relative viability worked out at 0.312 in the assay with Erlotinib + Phenformin (first compound 0.6325 µM); 0.372 with Erlotinib + Phenformin (first compound 2 µM); 0.766 with AT9283 + Alpelisib (first compound 0.003 µM); 0.441 with AT9283 + Alpelisib (first compound 0.03 µM); 0.226 in the assay with AT9283 + Alpelisib (first compound 0.09487 µM); 0.249 in the assay with AT9283 + Alpelisib (first compound 0.3 µM).

With 201T, the relative viability came out at 0.709 with Erlotinib + Trametinib (first compound 0.02 µM); 0.675 in the assay with Erlotinib + Trametinib (first compound 0.2 µM); 0.694 with Erlotinib + Trametinib (first compound 0.6325 µM); 0.636 in the assay with Erlotinib + Trametinib (first compound 2 µM); 0.468 with Erlotinib + Phenformin (first compound 0.02 µM); 0.408 with Erlotinib + Phenformin (first compound 0.2 µM). Besides, the relative viability with Erlotinib + Phenformin (first compound 0.6325 µM) was determined as 0.465; with Erlotinib + Phenformin (first compound 2 µM), 0.421; with AT9283 + Alpelisib (first compound 0.003 µM), 1.02; with AT9283 + Alpelisib (first compound 0.03 µM) it was 1.08; in the assay with AT9283 + Alpelisib (first compound 0.09487 µM) it was 0.525; in the assay with AT9283 + Alpelisib (first compound 0.3 µM), 0.445.

For the cell line COR-L 105, the relative viability with Erlotinib + Trametinib (first compound 0.02 µM) worked out at 0.455; with Erlotinib + Trametinib (first compound 0.2 µM), 0.336; with Erlotinib + Trametinib (first compound 0.6325 µM), 0.415; with Erlotinib + Trametinib (first compound 2 µM) it was 0.362; with Erlotinib + Phenformin (first compound 0.02 µM), 0.525; with Erlotinib + Phenformin (first compound 0.2 µM), 0.245. In addition, the relative viability with Erlotinib + Phenformin (first compound 0.6325 µM) is 0.322; with Erlotinib + Phenformin (first compound 2 µM), 0.216; with AT9283 + Alpelisib (first compound 0.003 µM), 1.49; with AT9283 + Alpelisib (first compound 0.03 µM), 0.342; with AT9283 + Alpelisib (first compound 0.09487 µM), 0.278; with AT9283 + Alpelisib (first compound 0.3 µM), 0.333.

On to LOU-NH91, for which the relative viability with Erlotinib + Trametinib (first compound 0.02 µM) was found to be 0.759; with Erlotinib + Trametinib (first compound 0.2 µM) it was 0.57; with Erlotinib + Trametinib (first compound 0.6325 µM) it was 0.739; with Erlotinib + Trametinib (first compound 2 µM), 0.644; with Erlotinib + Phenformin (first compound 0.02 µM) it was 0.449; with Erlotinib + Phenformin (first compound 0.2 µM), 0.481. Further, the relative viability with Erlotinib + Phenformin (first compound 0.6325 µM) came to 0.44; with Erlotinib + Phenformin (first compound 2 µM), 0.473; with AT9283 + Alpelisib (first compound 0.003 µM), 0.695; with AT9283 + Alpelisib (first compound 0.03 µM) it was 0.684; in the assay with AT9283 + Alpelisib (first compound 0.09487 µM), 0.531; in the assay with AT9283 + Alpelisib (first compound 0.3 µM), 0.427.

In the case of PC-3 [JPC-3], the relative viability came to 0.557 in the assay with Erlotinib + Trametinib (first compound 0.02 µM); 0.427 with Erlotinib + Trametinib (first compound 0.2 µM); 0.337 in the assay with Erlotinib + Trametinib (first compound 0.6325 µM); 0.332 with Erlotinib + Trametinib (first compound 2 µM); 0.445 with Erlotinib + Phenformin (first compound 0.02 µM); 0.367 with Erlotinib + Phenformin (first compound 0.2 µM). In addition, the relative viability was 0.268 in the assay with Erlotinib + Phenformin (first compound 0.6325 µM); 0.291 with Erlotinib + Phenformin (first compound 2 µM); 1.02 with AT9283 + Alpelisib (first compound 0.003 µM); 0.997 with AT9283 + Alpelisib (first compound 0.03 µM); 0.621 with AT9283 + Alpelisib (first compound 0.09487 µM); 0.527 with AT9283 + Alpelisib (first compound 0.3 µM).

Regarding NCI-H1666, the relative viability with Erlotinib + Trametinib (first compound 0.02 µM) amounted to 0.904; with Erlotinib + Trametinib (first compound 0.2 µM), 0.736; with Erlotinib + Trametinib (first compound 0.6325 µM), 0.78; with Erlotinib + Trametinib (first compound 2 µM), 0.709; with Erlotinib + Phenformin (first compound 0.02 µM) it was 0.562; in the assay with Erlotinib + Phenformin (first compound 0.2 µM) it was 0.584. The relative viability with Erlotinib + Phenformin (first compound 0.6325 µM) was found to be 0.522; with Erlotinib + Phenformin (first compound 2 µM) it was 0.533; with AT9283 + Alpelisib (first compound 0.003 µM), 1.04; with AT9283 + Alpelisib (first compound 0.03 µM), 0.736; with AT9283 + Alpelisib (first compound 0.09487 µM), 0.363; with AT9283 + Alpelisib (first compound 0.3 µM), 0.291.

EPLC-272H: the relative viability in the assay with Erlotinib + Trametinib (first compound 0.02 µM) is 0.322; with Erlotinib + Trametinib (first compound 0.2 µM), 0.282; with Erlotinib + Trametinib (first compound 0.6325 µM), 0.282; in the assay with Erlotinib + Trametinib (first compound 2 µM), 0.207; with Erlotinib + Phenformin (first compound 0.02 µM), 0.353; in the assay with Erlotinib + Phenformin (first compound 0.2 µM), 0.254. The relative viability with Erlotinib + Phenformin (first compound 0.6325 µM) turned out to be 0.321; with Erlotinib + Phenformin (first compound 2 µM), 0.212; in the assay with AT9283 + Alpelisib (first compound 0.003 µM), 0.872; in the assay with AT9283 + Alpelisib (first compound 0.03 µM), 0.831; with AT9283 + Alpelisib (first compound 0.09487 µM), 0.954; with AT9283 + Alpelisib (first compound 0.3 µM), 0.2.

Turning to HCC-15, the relative viability is 0.394 in the assay with Erlotinib + Trametinib (first compound 0.02 µM); 0.344 in the assay with Erlotinib + Trametinib (first compound 0.2 µM); 0.339 with Erlotinib + Trametinib (first compound 0.6325 µM); 0.347 in the assay with Erlotinib + Trametinib (first compound 2 µM); 0.472 in the assay with Erlotinib + Phenformin (first compound 0.02 µM); 0.491 with Erlotinib + Phenformin (first compound 0.2 µM). The relative viability with Erlotinib + Phenformin (first compound 0.6325 µM) turned out to be 0.63; with Erlotinib + Phenformin (first compound 2 µM), 0.382; with AT9283 + Alpelisib (first compound 0.003 µM) it was 0.874; with AT9283 + Alpelisib (first compound 0.03 µM), 0.598; in the assay with AT9283 + Alpelisib (first compound 0.09487 µM), 0.134; with AT9283 + Alpelisib (first compound 0.3 µM) it was 0.135.

As to NCI-H1792, the relative viability with Erlotinib + Trametinib (first compound 0.02 µM) was found to be 0.435; in the assay with Erlotinib + Trametinib (first compound 0.2 µM) it was 0.423; with Erlotinib + Trametinib (first compound 0.6325 µM) it was 0.47; with Erlotinib + Trametinib (first compound 2 µM), 0.446; with Erlotinib + Phenformin (first compound 0.02 µM) it was 0.24; in the assay with Erlotinib + Phenformin (first compound 0.2 µM), 0.219. Also, the relative viability with Erlotinib + Phenformin (first compound 0.6325 µM) came to 0.207; with Erlotinib + Phenformin (first compound 2 µM), 0.186; with AT9283 + Alpelisib (first compound 0.003 µM) it was 0.633; in the assay with AT9283 + Alpelisib (first compound 0.03 µM) it was 0.82; with AT9283 + Alpelisib (first compound 0.09487 µM) it was 0.565; in the assay with AT9283 + Alpelisib (first compound 0.3 µM) it was 0.242.
